SMILES strings stand for the structures. Where a SMILES comes first, the peptide text is derived from it. [ ]: non-standard residue; d: D form. Aib = CC(C)(N)C(=O)O Where only a bound is given, the exact number is not on record here.

Usually EC50 stands for the concentration needed to bring the measured effect to its halfway point.

In this assay the target is human GLP-1R (Homo sapiens, UniProt P43220). As to the kind of experiment: Peptide-receptor mediated cAMP accumulation (LANCE Ultra cAMP) in CHO-K1 cells transfected with human GLP-1R. It counts as cell-based. The settings on record: hGLP1 pEC50 (cAMP mean (n = 3): 11 point curve starting at 1 nM, Table 3).
Sequence of human GLP-1R (P43220 24-463): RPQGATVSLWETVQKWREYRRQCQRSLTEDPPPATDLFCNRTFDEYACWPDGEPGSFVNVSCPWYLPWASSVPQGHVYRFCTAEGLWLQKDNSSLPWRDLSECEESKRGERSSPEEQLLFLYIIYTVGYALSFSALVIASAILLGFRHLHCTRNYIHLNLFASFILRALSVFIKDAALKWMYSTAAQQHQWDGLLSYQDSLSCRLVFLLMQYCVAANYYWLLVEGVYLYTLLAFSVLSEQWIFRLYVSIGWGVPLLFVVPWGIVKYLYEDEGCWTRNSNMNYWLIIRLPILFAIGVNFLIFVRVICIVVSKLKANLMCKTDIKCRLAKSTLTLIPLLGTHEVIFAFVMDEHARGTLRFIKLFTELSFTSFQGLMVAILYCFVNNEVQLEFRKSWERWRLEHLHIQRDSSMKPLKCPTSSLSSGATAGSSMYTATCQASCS
Take `CC(C)C[C@H](NC(=O)[C@H](Cc1ccc(O)cc1)NC(=O)[C@H](CCCCN)NC(=O)[C@H](CO)NC(=O)[C@H](Cc1ccc(O)cc1)NC(=O)[C@H](CC(=O)O)NC(=O)[C@H](CO)NC(=O)[C@@H](NC(=O)[C@H](Cc1ccccc1)NC(=O)[C@@H](NC(=O)CNC(=O)[C@H](Cc1c[nH]cn1)NC(=O)[C@H](CO)NC(=O)[C@@H](N)Cc1ccc(O)cc1)[C@@H](C)O)[C@@H](C)O)C(=O)N[C@@H](CC(=O)O)C(=O)NC(C)(C)C(=O)N[C@@H](CCCCN)C(=O)N[C@@H](CCCNC(=N)N)C(=O)N[C@@H](C)C(=O)N[C@@H](CCC(N)=O)C(=O)N[C@@H](CCC(=O)O)C(=O)N[C@@H](Cc1ccccc1)C(=O)N[C@H](C(=O)NC(C)(C)C(=O)N[C@@H](Cc1c[nH]c2ccccc12)C(=O)N[C@@H](CC(C)C)C(=O)N[C@@H](CCC(=O)O)C(=O)N[C@@H](CCC(=O)O)C(=O)N[C@@H](CCC(=O)O)C(=O)N1CCC[C@H]1C(=O)N[C@@H](CO)C(=O)N[C@@H](CO)C(=O)NCC(=O)N[C@@H](C)C(=O)N1CCC[C@H]1C(=O)N1CCC[C@H]1C(=O)N1CCC[C@H]1C(=O)N[C@@H](CO)C(=O)O)C(C)C` [Compound A9] (H-YSHGTFTSDYSKYLD[Aib]KRAQEFV[Aib]WLEEEPSSGAPPPS-OH; N-terminus assumed): the concentration for a half-maximal effect (EC50) was above 1 nM.
To `CC(C)C[C@H](NC(=O)[C@H](Cc1ccc(O)cc1)NC(=O)[C@H](CCCCN)NC(=O)[C@H](CO)NC(=O)[C@H](Cc1ccc(O)cc1)NC(=O)[C@H](CC(=O)O)NC(=O)[C@H](CO)NC(=O)[C@@H](NC(=O)[C@H](Cc1ccccc1)NC(=O)[C@@H](NC(=O)CNC(=O)[C@H](Cc1c[nH]cn1)NC(=O)[C@H](CO)NC(=O)[C@@H](N)Cc1ccc(O)cc1)[C@@H](C)O)[C@@H](C)O)C(=O)N[C@@H](CC(=O)O)C(=O)NC(C)(C)C(=O)N[C@@H](CCCCN)C(=O)N[C@@H](CCCNC(=N)N)C(=O)N[C@@H](C)C(=O)N[C@@H](CCC(N)=O)C(=O)N[C@@H](CCC(=O)O)C(=O)N[C@@H](Cc1ccccc1)C(=O)N[C@H](C(=O)NC(C)(C)C(=O)N[C@@H](Cc1c[nH]c2ccccc12)C(=O)N[C@@H](CC(C)C)C(=O)N[C@@H](CCC(=O)O)C(=O)N[C@@H](CC(=O)O)C(=O)N[C@@H](CCC(=O)O)C(=O)NCC(=O)N[C@@H](C)C(=O)N1CCC[C@H]1C(=O)N1CCC[C@H]1C(=O)N1CCC[C@H]1C(=O)N[C@@H](CO)C(=O)O)C(C)C` [Compound A12] (H-YSHGTFTSDYSKYLD[Aib]KRAQEFV[Aib]WLEDEGAPPPS-OH; N-terminus assumed) belongs above 1 nM; to `CC(C)C[C@H](NC(=O)[C@H](Cc1ccc(O)cc1)NC(=O)[C@H](CCCCN)NC(=O)[C@H](CO)NC(=O)[C@H](Cc1ccc(O)cc1)NC(=O)[C@H](CC(=O)O)NC(=O)[C@H](CO)NC(=O)[C@@H](NC(=O)[C@H](Cc1ccccc1)NC(=O)[C@@H](NC(=O)CNC(=O)[C@H](Cc1c[nH]cn1)NC(=O)[C@H](CO)NC(=O)[C@@H](N)Cc1ccc(O)cc1)[C@@H](C)O)[C@@H](C)O)C(=O)N[C@@H](CC(=O)O)C(=O)NC(C)(C)C(=O)N[C@@H](CCCCN)C(=O)N[C@@H](CCCNC(=N)N)C(=O)N[C@@H](C)C(=O)N[C@@H](CCC(N)=O)C(=O)N[C@@H](CCC(=O)O)C(=O)N[C@@H](Cc1ccccc1)C(=O)N[C@H](C(=O)NC(C)(C)C(=O)N[C@@H](Cc1c[nH]c2ccccc12)C(=O)N[C@@H](CC(C)C)C(=O)N[C@@H](CCC(=O)O)C(=O)N[C@@H](CC(=O)O)C(=O)N[C@@H](CCC(=O)O)C(=O)N[C@@H](CO)C(=O)NCC(=O)N[C@@H](C)C(=O)N1CCC[C@H]1C(=O)N1CCC[C@H]1C(=O)N1CCC[C@H]1C(=O)N[C@@H](CO)C(=O)O)C(C)C` [Compound A13] (H-YSHGTFTSDYSKYLD[Aib]KRAQEFV[Aib]WLEDESGAPPPS-OH; N-terminus assumed), above 1 nM; to `CC(C)C[C@H](NC(=O)[C@H](Cc1c[nH]c2ccccc12)NC(=O)[C@H](CCCCN)NC(=O)[C@H](CO)NC(=O)[C@H](Cc1ccc(O)cc1)NC(=O)[C@H](CC(=O)O)NC(=O)[C@H](CO)NC(=O)[C@@H](NC(=O)[C@H](Cc1ccccc1)NC(=O)[C@@H](NC(=O)CNC(=O)[C@H](Cc1c[nH]cn1)NC(=O)[C@H](CO)NC(=O)[C@@H](N)Cc1ccc(O)cc1)[C@@H](C)O)[C@@H](C)O)C(=O)N[C@@H](CC(=O)O)C(=O)NC(C)(C)C(=O)N[C@@H](C)C(=O)N[C@@H](CCCNC(=N)N)C(=O)N[C@@H](C)C(=O)N[C@@H](CCC(N)=O)C(=O)N[C@@H](CCC(=O)O)C(=O)N[C@@H](Cc1ccccc1)C(=O)N[C@H](C(=O)NC(C)(C)C(=O)N[C@@H](Cc1c[nH]c2ccccc12)C(=O)N[C@@H](CC(C)C)C(=O)N[C@@H](CCC(=O)O)C(=O)N[C@@H](CC(=O)O)C(=O)N[C@@H](CCC(=O)O)C(=O)N1CCC[C@H]1C(=O)N[C@@H](CO)C(=O)N[C@@H](CO)C(=O)NCC(=O)N[C@@H](C)C(=O)N1CCC[C@H]1C(=O)N1CCC[C@H]1C(=O)N1CCC[C@H]1C(=O)N[C@@H](CO)C(=O)O)C(C)C` [Compound A18] (H-YSHGTFTSDYSKWLD[Aib]ARAQEFV[Aib]WLEDEPSSGAPPPS-OH; N-terminus assumed), above 1 nM.
To `CC(C)C[C@H](NC(=O)[C@H](Cc1ccc(O)cc1)NC(=O)[C@H](CCCCN)NC(=O)[C@H](CO)NC(=O)[C@H](Cc1ccc(O)cc1)NC(=O)[C@H](CC(=O)O)NC(=O)[C@H](CO)NC(=O)[C@@H](NC(=O)[C@H](Cc1ccccc1)NC(=O)[C@@H](NC(=O)CNC(=O)[C@H](Cc1c[nH]cn1)NC(=O)[C@H](CO)NC(=O)[C@@H](N)Cc1ccc(O)cc1)[C@@H](C)O)[C@@H](C)O)C(=O)N[C@@H](CC(=O)O)C(=O)NC(C)(C)C(=O)N[C@@H](CCCCN)C(=O)N[C@@H](CCCNC(=N)N)C(=O)N[C@@H](C)C(=O)N[C@@H](CCC(N)=O)C(=O)N[C@@H](CCC(=O)O)C(=O)N[C@@H](Cc1ccccc1)C(=O)N[C@H](C(=O)NC(C)(C)C(=O)N[C@@H](Cc1c[nH]c2ccccc12)C(=O)N[C@@H](CC(C)C)C(=O)N[C@@H](CCC(=O)O)C(=O)N[C@@H](CC(=O)O)C(=O)N[C@@H](CCC(=O)O)C(=O)N1CCC[C@H]1C(=O)N[C@@H](CO)C(=O)N[C@@H](CO)C(=O)N[C@@H](CCCCN)C(=O)NCC(=O)N[C@@H](C)C(=O)N1CCC[C@H]1C(=O)N1CCC[C@H]1C(=O)N1CCC[C@H]1C(=O)N[C@@H](CO)C(=O)O)C(C)C` [Compound A24] (H-YSHGTFTSDYSKYLD[Aib]KRAQEFV[Aib]WLEDEPSSKGAPPPS-OH) belongs above 1 nM; to `CC(C)C[C@H](NC(=O)[C@H](Cc1ccc(O)cc1)NC(=O)[C@H](CCCCN)NC(=O)[C@H](CO)NC(=O)[C@H](Cc1ccc(O)cc1)NC(=O)[C@H](CC(=O)O)NC(=O)[C@H](CO)NC(=O)[C@@H](NC(=O)[C@H](Cc1ccccc1)NC(=O)[C@@H](NC(=O)CNC(=O)[C@H](Cc1c[nH]cn1)NC(=O)[C@H](CO)NC(=O)[C@@H](N)Cc1ccc(O)cc1)[C@@H](C)O)[C@@H](C)O)C(=O)N[C@@H](CC(=O)O)C(=O)NC(C)(C)C(=O)N[C@@H](CCCCN)C(=O)N[C@@H](CCCNC(=N)N)C(=O)N[C@@H](C)C(=O)N[C@@H](CCC(N)=O)C(=O)N[C@@H](CCC(=O)O)C(=O)N[C@@H](Cc1ccccc1)C(=O)N[C@H](C(=O)NC(C)(C)C(=O)N[C@@H](Cc1c[nH]c2ccccc12)C(=O)N[C@@H](CC(C)C)C(=O)N[C@@H](CCC(=O)O)C(=O)N[C@@H](CC(=O)O)C(=O)N[C@@H](CCC(=O)O)C(=O)NCC(=O)NCC(=O)N1CCC[C@H]1C(=O)N[C@@H](CO)C(=O)N[C@@H](CO)C(=O)NCC(=O)N[C@@H](C)C(=O)N1CCC[C@H]1C(=O)N1CCC[C@H]1C(=O)N1CCC[C@H]1C(=O)N[C@@H](CO)C(=O)O)C(C)C` [Compound A27] (H-YSHGTFTSDYSKYLD[Aib]KRAQEFV[Aib]WLEDEGGPSSGAPPPS-OH; N-terminus assumed), above 1 nM; to `CC(C)C[C@H](NC(=O)[C@H](Cc1c[nH]c2ccccc12)NC(=O)[C@H](CCCCN)NC(=O)[C@H](CO)NC(=O)[C@H](Cc1ccc(O)cc1)NC(=O)[C@H](CC(=O)O)NC(=O)[C@H](CO)NC(=O)[C@@H](NC(=O)[C@H](Cc1ccccc1)NC(=O)[C@@H](NC(=O)CNC(=O)[C@H](Cc1c[nH]cn1)NC(=O)[C@@H](NC(=O)[C@@H](N)Cc1ccc(O)cc1)[C@@H](C)O)[C@@H](C)O)[C@@H](C)O)C(=O)N[C@@H](CC(=O)O)C(=O)NC(C)(C)C(=O)N[C@@H](CCCCN)C(=O)N[C@@H](CCCNC(=N)N)C(=O)N[C@@H](C)C(=O)N[C@@H](CCC(N)=O)C(=O)N[C@@H](CCC(=O)O)C(=O)N[C@@H](Cc1ccccc1)C(=O)N[C@H](C(=O)NC(C)(C)C(=O)N[C@@H](Cc1c[nH]c2ccccc12)C(=O)N[C@@H](CC(C)C)C(=O)N[C@@H](CCC(=O)O)C(=O)N[C@@H](CC(=O)O)C(=O)N[C@@H](CCC(=O)O)C(=O)N1CCC[C@H]1C(=O)N[C@@H](CO)C(=O)N[C@@H](CO)C(=O)NCC(=O)N[C@@H](C)C(=O)N1CCC[C@H]1C(=O)N1CCC[C@H]1C(=O)N1CCC[C@H]1C(=O)N[C@@H](CO)C(=O)O)C(C)C` [Compound A32] (H-YTHGTFTSDYSKWLD[Aib]KRAQEFV[Aib]WLEDEPSSGAPPPS-OH; N-terminus assumed), above 1 nM.
Then `CC(C)C[C@H](NC(=O)[C@H](Cc1ccc(O)cc1)NC(=O)[C@H](CCCCN)NC(=O)[C@H](CO)NC(=O)[C@H](Cc1ccc(O)cc1)NC(=O)[C@H](CC(=O)O)NC(=O)[C@H](CO)NC(=O)[C@@H](NC(=O)[C@H](Cc1ccccc1)NC(=O)[C@@H](NC(=O)CNC(=O)[C@H](Cc1c[nH]cn1)NC(=O)[C@H](CO)NC(=O)[C@@H](N)Cc1ccc(O)cc1)[C@@H](C)O)[C@@H](C)O)C(=O)N[C@@H](CC(=O)O)C(=O)N[C@@H](CO)C(=O)N[C@@H](C)C(=O)N[C@@H](CCCNC(=N)N)C(=O)N[C@@H](C)C(=O)N[C@@H](CCC(N)=O)C(=O)N[C@@H](CCC(=O)O)C(=O)N[C@@H](Cc1ccccc1)C(=O)N[C@H](C(=O)N[C@@H](CCCCN)C(=O)N[C@@H](Cc1c[nH]c2ccccc12)C(=O)N[C@@H](CC(C)C)C(=O)N[C@@H](CCC(=O)O)C(=O)N[C@@H](CC(=O)O)C(=O)N[C@@H](CCC(=O)O)C(=O)N1CCC[C@H]1C(=O)N[C@@H](CO)C(=O)N[C@@H](CO)C(=O)NCC(=O)N[C@@H](C)C(=O)N1CCC[C@H]1C(=O)N1CCC[C@H]1C(=O)N1CCC[C@H]1C(=O)N[C@@H](CO)C(=O)O)C(C)C` [Compound A37] (H-YSHGTFTSDYSKYLDSARAQEFVKWLEDEPSSGAPPPS-OH; N-terminus assumed), with above 1 nM.

The record behind these values is patent US20240239861A1, “GLUCAGON-RECEPTOR SELECTIVE POLYPEPTIDES AND METHODS OF USE THEREOF” (i2O Therapeutics, Inc., priority 2016, published 2024).
